Experimental findings from PubChem BioAssay AID248 (DTP/NCI, 2004) are described below.

Where “and” joins values, the source holds several entries; their conditions need not be identical. Equal entries are not always repeated. Toxic doses and inconclusive results are not listed.

For this experiment, the system named is L1210 leukemia ip in BDF1 mice, survival T/C. Briefly: NCI In Vivo Anticancer Drug Screen. Data for tumor model L1210 Leukemia (intraperitoneal) in B6D2F1 (BDF1) mice. The note with it: endpoint: mean survival time, higher = longer survival. In outline:
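Transplantable tumor model; survival measured in treated vs vehicle control mice. Value = treated/control.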

Turning to `O=NN(CCF)C(=O)NC1CCS(=O)(=O)CC1`, the T/C was 119 % of control (dose: 1.12 mg/kg/injection, schedule: Q01DX015 (ip), vehicle: other); 179 % of control (dose: 1.76 mg/kg/injection, schedule: Q01DX015 (ip), vehicle: other); 201 % of control (dose: 1.9 mg/kg/injection, schedule: Q01DX001 (ip), vehicle: saline with Tween-80); 118 % of control (dose: 2.0 mg/kg/injection, schedule: Q01DX001 (ip), vehicle: other); 309 % of control and 311 % of control (dose: 2.68 mg/kg/injection, schedule: Q01DX015 (ip), vehicle: other); 231 % of control and 246 % of control (dose: 3.52 mg/kg/injection, schedule: Q02DX008 (ip), vehicle: other). For the same compound, the T/C reads like this: (dose: 3.75 mg/kg/injection, schedule: Q01DX001 (ip), vehicle: other) 160 % of control; (dose: 3.8 mg/kg/injection, schedule: Q01DX001 (ip), vehicle: saline with Tween-80) 207 % of control; (dose: 4.0 mg/kg/injection, schedule: Q01DX015 (ip), vehicle: other) 422 % of control and 644 % of control; (dose: 4.7 mg/kg/injection, schedule: Q## X004 (ip), vehicle: other) 268 % of control; (dose: 5.0 mg/kg/injection, schedule: Q01DX001 (ip), vehicle: other) 163 % of control; (dose: 5.36 mg/kg/injection, schedule: Q02DX008 (ip), vehicle: other) 484 % of control and 538 % of control. Moreover, the T/C is 261 % of control (dose: 5.6 mg/kg/injection, schedule: Q## X032 (ip), vehicle: other); 290 % of control and 433 % of control (dose: 6.0 mg/kg/injection, schedule: Q01DX015 (ip), vehicle: other); 153 % of control (dose: 6.0 mg/kg/injection, schedule: Q## X032 (ip), vehicle: other); 519 % of control and 532 % of control (dose: 7.0 mg/kg/injection, schedule: Q## X004 (ip), vehicle: other); 302 % of control (dose: 7.5 mg/kg/injection, schedule: Q01DX001 (ip), vehicle: other); 557 % of control (dose: 7.5 mg/kg/injection, schedule: Q01DX001 (ip), vehicle: saline with Tween-80). Moreover, the T/C (dose: 8.0 mg/kg/injection, schedule: Q01DX001 (ip), vehicle: other) is 186 % of control; the T/C (dose: 8.0 mg/kg/injection, schedule: Q02DX008 (ip), vehicle: other) is 426 % of control and 715 % of control; the T/C (dose: 9.0 mg/kg/injection, schedule: Q01DX015 (ip), vehicle: other) is 339 % of control; the T/C (dose: 9.4 mg/kg/injection, schedule: Q01DX001 (ip), vehicle: other) is 364 % of control; the T/C (dose: 10.0 mg/kg/injection, schedule: Q01DX001 (ip), vehicle: other) is 340 % of control; the T/C (dose: 10.7 mg/kg/injection, schedule: Q## X004 (ip), vehicle: other) was 605 % of control and 650 % of control. The T/C is, setting by setting: (dose: 12.0 mg/kg/injection, schedule: Q02DX008 (ip), vehicle: other) 330 % of control and 476 % of control; (dose: 13.0 mg/kg/injection, schedule: Q## X032 (ip), vehicle: other) 468 % of control; (dose: 14.0 mg/kg/injection, schedule: Q01DX001 (ip), vehicle: other) 577 % of control and 580 % of control; (dose: 15.0 mg/kg/injection, schedule: Q01DX001 (ip), vehicle: other) 365 % of control; (dose: 15.0 mg/kg/injection, schedule: Q01DX001 (ip), vehicle: saline with Tween-80) 666 % of control; (dose: 16.0 mg/kg/injection, schedule: Q01DX001 (ip), vehicle: other) 315 % of control. For the same compound, the T/C is 365 % of control and 580 % of control (dose: 16.0 mg/kg/injection, schedule: Q## X004 (ip), vehicle: other); 326 % of control (dose: 18.0 mg/kg/injection, schedule: Q02DX008 (ip), vehicle: other); 180 % of control and 430 % of control (dose: 19.0 mg/kg/injection, schedule: Q## X032 (ip), vehicle: other); 365 % of control (dose: 20.0 mg/kg/injection, schedule: Q01DX001 (ip), vehicle: other); 231 % of control and 271 % of control (dose: 24.0 mg/kg/injection, schedule: Q## X004 (ip), vehicle: other); 115 % of control (dose: 29.0 mg/kg/injection, schedule: Q## X032 (ip), vehicle: other). Also, the T/C reads like this: (dose: 30.0 mg/kg/injection, schedule: Q01DX001 (ip), vehicle: other) 365 % of control; (dose: 30.0 mg/kg/injection, schedule: Q01DX001 (ip), vehicle: saline with Tween-80) 677 % of control; (dose: 31.0 mg/kg/injection, schedule: Q01DX001 (ip), vehicle: other) 315 % of control; (dose: 36.0 mg/kg/injection, schedule: Q## X004 (ip), vehicle: other) 253 % of control; (dose: 40.0 mg/kg/injection, schedule: Q01DX001 (ip), vehicle: other) 334 % of control.

For `CC(C)=CCNC(=O)NS(=O)(=O)c1ccc(Cl)cc1`, the T/C runs as follows: (dose: 100.0 mg/kg/injection, schedule: Q04DX003 (ip), vehicle: Klucel (hydroxypropylcellulose) (HPC)) 103 % of control; (dose: 200.0 mg/kg/injection, schedule: Q04DX003 (ip), vehicle: Klucel (hydroxypropylcellulose) (HPC)) 103 % of control; (dose: 400.0 mg/kg/injection, schedule: Q04DX003 (ip), vehicle: Klucel (hydroxypropylcellulose) (HPC)) 100 % of control.

With `CSc1nc(SCc2ccc(Cl)cc2)ncc1C`, the T/C (dose: 50.0 mg/kg/injection, schedule: Q01DX Z (ip), vehicle: methylcellulose (MC)) was 92 % of control and the T/C (dose: 200.0 mg/kg/injection, schedule: Q01DX Z (ip), vehicle: methylcellulose (MC)) was 94 % of control.

Consider `Clc1ccc(C#Cc2ccc(Cl)cc2)cc1`, for which the T/C by setting is: (dose: 6.25 mg/kg/injection, schedule: Q01DX009 (ip), vehicle: saline with Tween-80) 103 % of control; (dose: 12.5 mg/kg/injection, schedule: Q01DX009 (ip), vehicle: saline with Tween-80) 103 % of control.

As for `C#CCCN1CCC2(CC1)C(=O)NCN2c1ccccc1`, the T/C is 91 % of control (dose: 100.0 mg/kg/injection, schedule: Q01DX001 (ip), vehicle: Klucel (hydroxypropylcellulose) (HPC)); 94 % of control (dose: 200.0 mg/kg/injection, schedule: Q01DX001 (ip), vehicle: Klucel (hydroxypropylcellulose) (HPC)); 91 % of control (dose: 400.0 mg/kg/injection, schedule: Q01DX001 (ip), vehicle: Klucel (hydroxypropylcellulose) (HPC)).

As to `O=C1/C(=C/c2ccc3c(c2)OCO3)C2CCC(N2)/C1=C\c1ccc2c(c1)OCO2`, the T/C by setting is: (dose: 100.0 mg/kg/injection, schedule: Q01DX001 (ip), vehicle: other) 89 % of control; (dose: 400.0 mg/kg/injection, schedule: Q01DX001 (ip), vehicle: other) 101 % of control.

For the compound `COc1cc(C=Nc2ccc(-c3csc(-c4ccccc4)n3)c(Cl)c2)ccc1N(CCCl)CCCl`, the T/C runs as follows: (dose: 13.3 mg/kg/injection, schedule: Q01DX001 (ip), vehicle: carboxymethylcellulose (CMC)) 122 % of control; (dose: 20.0 mg/kg/injection, schedule: Q01DX009 (ip), vehicle: carboxymethylcellulose (CMC)) 158 % of control; (dose: 100.0 mg/kg/injection, schedule: Q01DX001 (ip), vehicle: carboxymethylcellulose (CMC)) 166 % of control; (dose: 200.0 mg/kg/injection, schedule: Q01DX001 (ip), vehicle: carboxymethylcellulose (CMC)) 95 % of control.

As for `Nc1nc[nH]c(=O)c1NC=O`, the T/C runs as follows: (dose: 100.0 mg/kg/injection, schedule: Q01DX009 (ip), vehicle: saline) 94 % of control; (dose: 100.0 mg/kg/injection, schedule: Q04DX003 (ip), vehicle: saline with Tween-80) 97 % of control; (dose: 200.0 mg/kg/injection, schedule: Q01DX009 (ip), vehicle: saline) 100 % of control; (dose: 200.0 mg/kg/injection, schedule: Q04DX003 (ip), vehicle: saline with Tween-80) 98 % of control; (dose: 400.0 mg/kg/injection, schedule: Q01DX009 (ip), vehicle: saline) 104 % of control; (dose: 400.0 mg/kg/injection, schedule: Q04DX003 (ip), vehicle: saline with Tween-80) 101 % of control.

As for `CCCCCCCCNC(=O)c1ccc([N+](=O)[O-])s1`, the T/C (dose: 100.0 mg/kg/injection, schedule: Q01DX005 (ip), vehicle: saline) was 94 % of control; the T/C (dose: 200.0 mg/kg/injection, schedule: Q01DX005 (ip), vehicle: saline) was 94 % of control; the T/C (dose: 400.0 mg/kg/injection, schedule: Q01DX005 (ip), vehicle: saline) was 94 % of control.
